This passage reports EC50 and Kd results from patent US10947252B2, “Inhibitors of KEAP1-Nrf2 protein-protein interaction” (Janssen Pharmaceutica NV, priority 2018, dated 2021).

Assay [1] relates to Glo-Response ARE-luc2P HEK293 cell line. Briefly: ARE luciferase reporter cell-based assay.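 Note: luciferase signal tracks Nrf2 activation of the ARE once compounds disrupt KEAP1-Nrf2 binding, read with One-Glo reagent, DMSO serving as low control.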 Conditions: Homo sapiens, HEK293, 24 h, average of results obtained.
The target of assay [2] is Kelch domain of human KEAP1 (321-624 aa) (Homo sapiens (Human), UniProt Q14145). Nature of the assay: KEAP1 KELCH ThermoFluor binding assay.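 Note: Ligand-induced melting temperature shift of E. coli-expressed KEAP1 Kelch protein, Kd estimated from concentration-response curves of ΔTm.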 Conditions: KEAP Kelch […], 1,8-ANS, pH 7.0, average of results obtained, read-out: Tf Kd. In general terms: DSF heats the sample and reads unfolding from a dye or from intrinsic fluorescence.

The structures appear in SMILES notation. A value given as a limit tells only on which side of the number the result lay.

Kelch domain of human KEAP1 (321-624 aa), sequence (Q14145 321-624): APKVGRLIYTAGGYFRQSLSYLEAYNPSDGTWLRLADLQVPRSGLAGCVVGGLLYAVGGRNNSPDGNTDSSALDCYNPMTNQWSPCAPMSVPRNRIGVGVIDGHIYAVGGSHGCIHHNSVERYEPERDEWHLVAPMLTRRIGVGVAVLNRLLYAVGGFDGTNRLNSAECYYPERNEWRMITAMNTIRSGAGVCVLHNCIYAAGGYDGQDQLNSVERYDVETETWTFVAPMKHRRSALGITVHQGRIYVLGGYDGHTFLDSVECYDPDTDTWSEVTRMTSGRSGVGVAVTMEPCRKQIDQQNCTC

Broadly, the EC50 is the concentration that produces a half-maximal response. By Kd is commonly meant the equilibrium constant for the complex coming apart. `Cc1cnc2c(c1)S(=O)(=O)N(Cc1cc([C@@H](c3ccn4c(C(F)(F)F)nnc4c3C)C(C)(C)C(=O)O)ncc1C)CC1(CCOCC1)O2` (single isomer, unassigned) [Example 591, (*S)-2,2-Dimethyl-3-(8-methyl-3-(trifluoromethyl)-[1,2,4]triazolo[4,3-a]pyridin-7-yl)-3-(5-methyl-4-((8′-methyl-1′,1′-dioxido-2,3,5,6-tetrahydrospiro[pyran-4,4′-pyrido[2,3-b][1,4,5]oxathiazepin]-2′(3′H)-yl)methyl)pyridin-2-yl)propanoic Acid] showed a half-maximal effective concentration (EC50) in assay [1] of 26.1 nM. Also, in assay [2], the dissociation constant (Kd) is less than 1 nM.
The like results for `Cc1cnc([C@@H](c2ccn3c(C(F)(F)F)nnc3c2C)C(C)(C)C(=O)O)cc1CN1CC2(CC2)Oc2nc(OCCN3CCCCC3)c(C)cc2S1(=O)=O` (single isomer, unassigned) [Example 592, (*S)-2,2-Dimethyl-3-(8-methyl-3-(trifluoromethyl)-[1,2,4]triazolo[4,3-a]pyridin-7-yl)-3-(5-methyl-4-((8′-methyl-1′,1′-dioxido-7′-(2-(piperidin-1-yl)ethoxy)spiro[cyclopropane-1,4′-pyrido[2,3-b][1,4,5]oxathiazepin]-2′(3′H)-yl)methyl)pyridin-2-yl)propanoic Acid] were, in that order, 17.6 nM and less than 1 nM.
`Cc1cnc([C@@H](c2ccn3c(C(F)(F)F)nnc3c2C)C(C)(C)C(=O)O)cc1CN1CC2(CCOCC2)Oc2nc(OCCN3CCCC3)c(C)cc2S1(=O)=O` (single isomer, unassigned) [Example 593, (*S)-2,2-Dimethyl-3-(8-methyl-3-(trifluoromethyl)-[1,2,4]triazolo[4,3-a]pyridin-7-yl)-3-(5-methyl-4-((8′-methyl-1′,1′-dioxido-7′-(2-(pyrrolidin-1-yl)ethoxy)-2,3,5,6-tetrahydrospiro[pyran-4,4′-pyrido[2,3-b][1,4,5]oxathiazepin]-2′(3′H)-yl)methyl)pyridin-2-yl)propanoic Acid] returned a 50% effective concentration (EC50) in assay [1] of 89.7 nM. For the same compound, the dissociation constant Kd in assay [2] was less than 1 nM.
`CCn1nnc2c(C)c([C@H](c3cc(CN4CC5(CC5)Oc5ncc(C)cc5S4(=O)=O)c(C)cn3)C(C)(C)C(=O)O)ccc21` (single isomer, unassigned) [Example 594, (*S)-3-(1-Ethyl-4-methyl-1H-benzo[d][1,2,3]triazol-5-yl)-2,2-dimethyl-3-(5-methyl-4-((8′-methyl-1′,1′-dioxidospiro[cyclopropane-1,4′-pyrido[2,3-b][1,4,5]oxathiazepin]-2′(3′H)-yl)methyl)pyridin-2-yl)propanoic Acid] had a 50% effective concentration (EC50) in assay [1] of 3.3 nM. Moreover, the Kd in assay [2] is less than 1 nM.
The like results for `CCn1nnc2c(C)c([C@H](c3cc(CN4CC5(CNC5)Oc5ncc(C)cc5S4(=O)=O)c(C)cn3)C(C)(C)C(=O)O)ccc21` (single isomer, unassigned) [Example 595, (*S)-3-(1-Ethyl-4-methyl-1H-benzo[d][1,2,3]triazol-5-yl)-2,2-dimethyl-3-(5-methyl-4-((8′-methyl-1′,1′-dioxidospiro[azetidine-3,4′-pyrido[2,3-b][1,4,5]oxathiazepin]-2′(3′H)-yl)methyl)pyridin-2-yl)propanoic Acid] were, in that order, 139 nM and 4.28 nM.
In assay [1], `Cc1ccc([C@@H](c2ccn3c(C(F)(F)F)nnc3c2C)C(C)(C)C(=O)O)cc1CN1CC2(CC2)Oc2nc(OCCN3CC(F)C3)c(C)cc2S1(=O)=O` (single isomer, unassigned) [Example 596, (*S)-3-(3-((7′-(2-(3-fluoroazetidin-1-yl)ethoxy)-8′-methyl-1′,1′-dioxidospiro[cyclopropane-1,4′-pyrido[2,3-b][1,4,5]oxathiazepin]-2′(3′H)-yl)methyl)-4-methylphenyl)-2,2-dimethyl-3-(8-methyl-3-(trifluoromethyl)-[1,2,4]triazolo[4,3-a]pyridine-7-yl)propanoic Acid] registered an EC50 of 3.08 nM. Besides, the equilibrium dissociation constant (Kd) in assay [2] is less than 1 nM.
